One assay deals with dsDNA. Nature of the assay: Stabilization of human duplex DNA assessed as change in temperature at 1 uM by FRET assay. Format: nucleic-acid assay.
For the next assay, the system named is Human alphaherpesvirus 1. Put plainly: Antiviral activity against HSV-1 infected in African green monkey Vero cells by plaque reduction assay. It counts as functional, organism-based. As to conditions: Human alphaherpesvirus 1, Vero.
A further assay concerns Bacillus subtilis. Nature of the assay: Antimicrobial activity against Bacillus subtilis MTCC 441 assessed as zone of inhibition by […]. It counts as functional. (In general: Dilution methods test growth across graded concentrations, often in twofold steps.)
The subject of the next assay is Micrococcus luteus. Nature of the assay: Antimicrobial activity against Micrococcus luteus ATCC 9341 assessed as zone of inhibition by […]. Format: functional.
Assay [1] has as its system Quadruplex DNA. Nature of the assay: Stabilization of human G4 quadruplex telomeric22 DNA assessed as change in temperature at 1 uM by FRET assay. Format: nucleic-acid assay.
In assay [2] the test system is Quadruplex DNA. Nature of the assay: Stabilization of human G4 quadruplex telomeric22 DNA assessed as change in temperature at 2 uM by FRET assay. It counts as nucleic-acid assay.
Assay [3] deals with Quadruplex DNA. Nature of the assay: Stabilization of human G4 quadruplex telomeric22 DNA assessed as change in temperature at 5 uM by FRET assay. Format: nucleic-acid assay.
The test system of assay [4] is Quadruplex DNA. Nature of the assay: Stabilization of human G4 quadruplex telomeric22 DNA assessed as change in temperature at 10 uM by FRET assay. It counts as nucleic-acid assay.

Molecules are shown by their SMILES. Bounds are passed on as bounds.

As a reminder, the ΔTm is the change in melting temperature against a reference sample. Consider `CCNCCC(=O)Nc1ccc(-c2cn(Cc3cc(Cn4cc(-c5ccc(NC(=O)CCNCC)cc5)nn4)cc(Cn4cc(-c5ccc(NC(=O)CCNCC)cc5)nn4)c3)nn2)cc1`, for which the ΔTm in the assay with dsDNA was determined as 0 °C.
By EC50 is commonly meant the concentration at which the effect is half-maximal. With `FC(F)CNc1nc(NCC(F)F)nc(NCC(F)F)n1`, the EC50 in the assay on Human alphaherpesvirus 1 was 24.4 µM.
Still for that read-out and setting: under `COc1ccc(CNc2nc(NCc3ccc(OC)cc3)nc(NCc3ccc(OC)cc3)n2)cc1` stands above 100 µM.
Consider `O=C(/C=C/c1ccc(Cl)cc1)c1ccc(Oc2nc(Oc3ccc(C(=O)/C=C/c4ccc(Cl)cc4)cc3)nc(Oc3ccc(C(=O)/C=C/c4ccc(Cl)cc4)cc3)n2)cc1`, for which the “inhibition zone (IZ)” value was determined as 7 mm with Bacillus subtilis and 8 mm with Micrococcus luteus.
As for `CCCCCCNCCCC(=O)Nc1ccc(-c2cn(Cc3cc(Cn4cc(-c5ccc(NC(=O)CCCNCCCCCC)cc5)nn4)cc(Cn4cc(-c5ccc(NC(=O)CCCNCCCCCC)cc5)nn4)c3)nn2)cc1`, the ΔTm is 0 °C in the assay with dsDNA, 1 °C with Quadruplex DNA [1] and 1 °C with Quadruplex DNA [2].
For `c1ccc2c(c1)c1cc(-c3cc(-c4ccc5c(c4)c4ccccc4n5CCCN4CCCCC4)cc(-c4ccc5c(c4)c4ccccc4n5CCCN4CCCCC4)c3)ccc1n2CCCN1CCCCC1`, the thermal shift (ΔTm) with Quadruplex DNA [3] is 17 °C; in the assay on Quadruplex DNA [1], 6 °C; with Quadruplex DNA [4], 19.9 °C.
`CCN(CC)CCCn1c2ccccc2c2cc(-c3cc(-c4ccc5c(c4)c4ccccc4n5CCCN(CC)CC)cc(-c4ccc5c(c4)c4ccccc4n5CCCN(CC)CC)c3)ccc21`: the thermal shift (ΔTm) with Quadruplex DNA [3] turned out to be 8.4 °C; with Quadruplex DNA [1], 5.1 °C; in the assay on Quadruplex DNA [4], 11.5 °C.
`CNCC(=O)Nc1ccc(-c2cn(Cc3cc(Cn4cc(-c5ccc(NC(=O)CNC)cc5)nn4)cc(Cn4cc(-c5ccc(NC(=O)CNC)cc5)nn4)c3)nn2)cc1`: the ΔTm in the assay on dsDNA is 0 °C; in the assay with Quadruplex DNA [1], 1 °C; with Quadruplex DNA [2], 1 °C.
As for `CC(C)CNc1nc(NCC(C)C)nc(NCC(C)C)n1`, the midpoint of the response in the assay with Human alphaherpesvirus 1, the EC50, lay at 29.8 µM.
For the molecule `CCCCCNCC(=O)Nc1ccc(-c2cn(Cc3cc(Cn4cc(-c5ccc(NC(=O)CNCCCCC)cc5)nn4)cc(Cn4cc(-c5ccc(NC(=O)CNCCCCC)cc5)nn4)c3)nn2)cc1`, the shift in melting temperature (ΔTm) in the assay on dsDNA, with Quadruplex DNA [1] and with Quadruplex DNA [2] was 0 °C in each case.
With `CNCCCC(=O)Nc1ccc(-c2cn(Cc3cc(Cn4cc(-c5ccc(NC(=O)CCCNC)cc5)nn4)cc(Cn4cc(-c5ccc(NC(=O)CCCNC)cc5)nn4)c3)nn2)cc1`, the values for the ΔTm with dsDNA, in the assay with Quadruplex DNA [1] and with Quadruplex DNA [2] were 0 °C, 2 °C and 7 °C, respectively.
Regarding `NC(=S)N1N=C(c2ccc(Oc3nc(Oc4ccc(C5=NN(C(N)=S)C(c6ccc([N+](=O)[O-])cc6)C5)cc4)nc(Oc4ccc(C5=NN(C(N)=S)C(c6ccc([N+](=O)[O-])cc6)C5)cc4)n3)cc2)CC1c1ccc([N+](=O)[O-])cc1` (configuration not stated), the “inhibition zone (IZ)” value in the assay on Bacillus subtilis was 10 mm.
Molecule `c1ccc(CNc2nc(NCc3ccccc3)nc(NCc3ccccc3)n2)cc1` displayed a concentration giving a half-maximal response (EC50) with Human alphaherpesvirus 1 of 13.2 µM.
On the same count and under the same terms, in the case of `CC(C)(C)Oc1nc(N)nc(OC(C)(C)C)n1` it was above 100 µM; in that of `c1cc2c(cc1CNc1nc(NCc3ccc4c(c3)OCO4)nc(NCc3ccc4c(c3)OCO4)n1)OCO2`, 5.4 µM.
The same measure, in the same setting: in the case of `Cc1ccc(CNc2nc(NCc3ccc(C)cc3)nc(NCc3ccc(C)cc3)n2)cc1` it was 38.7 µM.
With `CCNCCCC(=O)Nc1ccc(-c2cn(Cc3cc(Cn4cc(-c5ccc(NC(=O)CCCNCC)cc5)nn4)cc(Cn4cc(-c5ccc(NC(=O)CCCNCC)cc5)nn4)c3)nn2)cc1`, the ΔTm with dsDNA worked out at 0 °C; in the assay with Quadruplex DNA [1] it was 1 °C; in the assay with Quadruplex DNA [2] it was 2 °C.
In the case of `O=C(/C=C/c1cccc([N+](=O)[O-])c1)c1ccc(Oc2nc(Oc3ccc(C(=O)/C=C/c4cccc([N+](=O)[O-])c4)cc3)nc(Oc3ccc(C(=O)/C=C/c4cccc([N+](=O)[O-])c4)cc3)n2)cc1`, the inhibition zone (IZ) in the assay on Bacillus subtilis amounted to 7 mm; with Micrococcus luteus, 5 mm.
Consider `CCCCCNCCCC(=O)Nc1ccc(-c2cn(Cc3cc(Cn4cc(-c5ccc(NC(=O)CCCNCCCCC)cc5)nn4)cc(Cn4cc(-c5ccc(NC(=O)CCCNCCCCC)cc5)nn4)c3)nn2)cc1`, for which the ΔTm came out at 0 °C in the assay on dsDNA, 2 °C in the assay on Quadruplex DNA [1] and 5 °C in the assay on Quadruplex DNA [2].
Take `CCCCCNCCC(=O)Nc1ccc(-c2cn(Cc3cc(Cn4cc(-c5ccc(NC(=O)CCNCCCCC)cc5)nn4)cc(Cn4cc(-c5ccc(NC(=O)CCNCCCCC)cc5)nn4)c3)nn2)cc1`: the ΔTm was 0 °C with dsDNA, 1 °C in the assay with Quadruplex DNA [1] and 7 °C in the assay on Quadruplex DNA [2].
Regarding `COc1ccc(CNc2nc(NCc3ccc(OC)c(OC)c3OC)nc(NCc3ccc(OC)c(OC)c3OC)n2)c(OC)c1OC`, the concentration giving a half-maximal response (EC50) in the assay on Human alphaherpesvirus 1 amounted to 28 µM.
For the molecule `CNCCC(=O)Nc1ccc(-c2cn(Cc3cc(Cn4cc(-c5ccc(NC(=O)CCNC)cc5)nn4)cc(Cn4cc(-c5ccc(NC(=O)CCNC)cc5)nn4)c3)nn2)cc1`, the ΔTm in the assay with dsDNA amounted to 0 °C.
As for `CCCOCCNCC(=O)Nc1ccc(-c2cn(Cc3cc(Cn4cc(-c5ccc(NC(=O)CNCCOCCC)cc5)nn4)cc(Cn4cc(-c5ccc(NC(=O)CNCCOCCC)cc5)nn4)c3)nn2)cc1`, the ΔTm in the assay with dsDNA, with Quadruplex DNA [1] and in the assay with Quadruplex DNA [2] was 0 °C each time.
In the assay with Human alphaherpesvirus 1, `COc1ccc(CNc2nc(NCc3ccc(OC)cc3OC)nc(NCc3ccc(OC)cc3OC)n2)c(OC)c1` yielded an EC50 above 100 µM.
`CCCOCCNCCC(=O)Nc1ccc(-c2cn(Cc3cc(Cn4cc(-c5ccc(NC(=O)CCNCCOCCC)cc5)nn4)cc(Cn4cc(-c5ccc(NC(=O)CCNCCOCCC)cc5)nn4)c3)nn2)cc1`: the thermal shift (ΔTm) in the assay with dsDNA, in the assay on Quadruplex DNA [1] and in the assay on Quadruplex DNA [2] was 0 °C each time.
Turning to `FC(F)(F)c1ccc(CNc2nc(NCc3ccc(C(F)(F)F)cc3)nc(NCc3ccc(C(F)(F)F)cc3)n2)cc1`, a half-maximal effect in the assay on Human alphaherpesvirus 1 (EC50) was put at 7.4 µM.
On the same count and under the same terms, in the case of `Nc1nc(OC(C(F)(F)F)C(F)(F)F)nc(OC(C(F)(F)F)C(F)(F)F)n1` it was above 100 µM; in that of `Clc1ccc(CNc2nc(NCc3ccc(Cl)cc3)nc(NCc3ccc(Cl)cc3)n2)cc1`, 11 µM.
Regarding `CCCCCCNCC(=O)Nc1ccc(-c2cn(Cc3cc(Cn4cc(-c5ccc(NC(=O)CNCCCCCC)cc5)nn4)cc(Cn4cc(-c5ccc(NC(=O)CNCCCCCC)cc5)nn4)c3)nn2)cc1`, the shift in melting temperature (ΔTm) was determined as 0 °C with dsDNA, 2 °C in the assay with Quadruplex DNA [1] and 2 °C in the assay with Quadruplex DNA [2].
Molecule `COc1ccc(CNc2nc(NCc3ccc(OC)c(OC)c3)nc(NCc3ccc(OC)c(OC)c3)n2)cc1OC` returned a 50% effective concentration (EC50) with Human alphaherpesvirus 1 of 0.98 µM.
Take `CC(C)COc1nc(N)nc(OCC(C)C)n1`: the half-maximal effective concentration (EC50) in the assay with Human alphaherpesvirus 1 was above 100 µM.
Regarding `CCCCCCNCCC(=O)Nc1ccc(-c2cn(Cc3cc(Cn4cc(-c5ccc(NC(=O)CCNCCCCCC)cc5)nn4)cc(Cn4cc(-c5ccc(NC(=O)CCNCCCCCC)cc5)nn4)c3)nn2)cc1`, the ΔTm in the assay on dsDNA was found to be 0 °C; with Quadruplex DNA [1] it was 4 °C; in the assay with Quadruplex DNA [2], 11 °C.
Turning to `CCCOCCNCCCC(=O)Nc1ccc(-c2cn(Cc3cc(Cn4cc(-c5ccc(NC(=O)CCCNCCOCCC)cc5)nn4)cc(Cn4cc(-c5ccc(NC(=O)CCCNCCOCCC)cc5)nn4)c3)nn2)cc1`, the shift in melting temperature (ΔTm) in the assay with dsDNA, in the assay with Quadruplex DNA [1] and in the assay on Quadruplex DNA [2] was 0 °C in each case.
Regarding `CCNCC(=O)Nc1ccc(-c2cn(Cc3cc(Cn4cc(-c5ccc(NC(=O)CNCC)cc5)nn4)cc(Cn4cc(-c5ccc(NC(=O)CNCC)cc5)nn4)c3)nn2)cc1`, the shift in melting temperature (ΔTm) is 0 °C in the assay on dsDNA, 0 °C in the assay on Quadruplex DNA [1] and 1 °C in the assay on Quadruplex DNA [2].
For the molecule `CC(C)Nc1nc(NC(C)C)nc(NC(C)C)n1`, the EC50 in the assay on Human alphaherpesvirus 1 is 27.3 µM.

Values taken from ChEMBL document CHEMBL5385942, “C3-Symmetric ligands in drug design: An overview of the challenges and opportunities ahead” (Bioorg Med Chem Lett, 2024).
